In experiment [1] the test system is Ralstonia. As to conditions: tomato plants transferred into hydroponic solutions inoculated with Ralstonia and previously treated with 3-IBA; more than 60% wilt in its absence; cited from earlier work.
Experiment [2] concerns Ralstonia solanacearum. It is filed as in vivo. The conditions noted are these: for Bacterial wilt severity: foliar application, tomato plants, scale 0=healthy to 4=dead plant.
Experiment [3] deals with Ralstonia. As to conditions: solution added to Ralstonia culture liquid in physiological brine; cited from earlier work.

Structures are written as SMILES. Read-outs that look alike come from different tables or passages of the source. Marks after values point to notes of the source that are not given here.

Take `CC(CC(=O)O)c1c[nH]c2ccccc12` (centres unmarked) [3-IBA, 3-(3-indolyl) butanoic acid]: the Plants slightly wilted result in experiment [1] is on record as “less than 10%”. For the same molecule, the Bacterial wilt severity in experiment [2] (higher concentration (2.0 lbs active ingredient per 100 gallons), rated 9/26/2000, six replications) is recorded as 2.3; in experiment [2] (higher concentration (2.0 lbs active ingredient per 100 gallons), rated 9/27/2000), 3.0; in experiment [2] (higher concentration (2.0 lbs active ingredient per 100 gallons), rated 9/30/2000), 2.8; in experiment [2] (higher concentration (2.0 lbs active ingredient per 100 gallons), rated 10/04/2000) it was 3.3; in experiment [2] (higher concentration (2.0 lbs active ingredient per 100 gallons), rated 10/26/2000) it was 1.5***; in experiment [2] (low concentration (0.25 lbs active ingredient per 100 gallons), rated 9/26/2000, six replications) it was 2.5. Moreover, the Bacterial wilt severity in experiment [2] (low concentration (0.25 lbs active ingredient per 100 gallons), rated 9/27/2000) is on record as 3.0; in experiment [2] (low concentration (0.25 lbs active ingredient per 100 gallons), rated 9/30/2000), 4.0; in experiment [2] (low concentration (0.25 lbs active ingredient per 100 gallons), rated 10/04/2000), 3.8; in experiment [2] (low concentration (0.25 lbs active ingredient per 100 gallons), rated 10/26/2000), 4.0**. The “Plants revived and recovering at the end of the trial” value in experiment [2] (higher concentration, foliar treatment prior to inoculation, of 6 tomato plants) is listed as 3 plants. Further, the “State of the 6 treated plants by the end of the trial” value in experiment [2] (low concentration, foliar treatment prior to inoculation, 6 tomato plants) is recorded as “all dead”.

Consider `C[C@@H](CC(=O)O)c1c[nH]c2ccccc12` [(S)-3-(3-indolyl) butanoic acid], for which, in experiment [3], the “Ralstonia growth (turbidity of culture liquid)” value is “suppression of Ralstonia growth”.

(Values after patent US6399646B1 (priority 2001, dated 2002).)
